Source: patent US8586600B2, “Heterocyclic compounds and uses thereof” (Celgene Avilomics Research, Inc., priority 2007, dated 2013)
Read-outs that look alike come from different tables or passages of the source.

How the values were obtained:
PDGFR-α = PDGFR-α (Homo sapiens (Human), UniProt P16234); test: PDGFR inhibition assay Method B (Z'-LYTE biochemical assay); conditions: compound at 1 μM
Text: The Z'-LYTE™ biochemical assay employs a fluorescence-based, coupled-enzyme format and is based on the differential sensitivity of phosphorylated and non-phosphorylated peptides to proteolytic cleavage.

c-KIT kinase [1] = target: T1, c-KIT kinase (Homo sapiens (Human), UniProt P10721); test: cKit inhibition assay Method C (electrophoretic mobility shift); format: biochemical; conditions: read-out: c-KIT % Inhibition
Protocol: The reaction was started by adding the ATP and incubating for 1 hour at room temperature. […] Phosphorylated and unphosphorylated substrate was separated by charge using electrophoretic mobility shift. Product formed was compared to control wells to determine inhibition or enhancement of enzyme activity.

c-KIT (V654A) [2] = target: T2, c-KIT (V654A) (Homo sapiens (Human), UniProt P10721, V654A); test: c-Kit (V654A) Omnia assay with pre-activated enzyme (Method D); format: biochemical; conditions: [ATP]=100 μM, read-out: Mutant c-KIT (V654A) IC50
Protocol: 10× enzyme/ATP stocks were pre-incubated for 30 min at room temperature to pre-activate each enzyme prior to compound exposure. […] Kinase reactions were started with the addition of 45 μL of the Y9 or Y12-Sox peptide substrate and monitored every 30-90 seconds for 60 minutes at λex360/λem485 in a Synergy^4 plate reader from BioTek (Winooski, Vt.).

c-KIT (V654A) [3] = target: T2, c-KIT (V654A); test: c-Kit (V654A) Omnia assay for potency assessment (Method E); format: biochemical; conditions: [ATP]=220 μM, read-out: Mutant c-KIT (V654A) IC50 Apparent
Protocol: (§1) Kinase reactions were started with the addition of 45 μL of the Y9 or Y12-Sox peptide substrate and monitored every 30-90 seconds for 60 minutes at λex360/λem485 in a Synergy^4 plate reader from BioTek (Winooski, Vt.).

c-KIT kinase [4] = target: T1, c-KIT kinase; test: c-KIT mass spectral analysis of tryptic digest (MALDI-TOF); format: binding; conditions: 3 hours incubation at 10× excess of compound
Protocol: Iodoacetamide was used as the alkylating agent after compound incubation. […] For tryptic digests a 5 μl aliquot (14 pmols) was diluted with 10 ul of 0.1% TFA prior to micro C18 Zip Tipping directly onto the MALDI target using alpha cyano-4-hydroxy cinnamic acid as the matrix (5 mg/ml in 0.1% TFA:acetonitrile 50:50).
The tryptic digest was analyzed by mass spectrometer (MALDI-TOF).

c-KIT (T670I) = c-KIT (T670I) (Homo sapiens (Human), UniProt P10721, T670I); test: c-Kit (T670I) Omnia assay for potency assessment (Method E); format: biochemical; conditions: [ATP]=220 μM, read-out: Mutant c-KIT (T670I) IC50 Apparent
Protocol: as §1

T2 sequence (P10721 26-976 V654A): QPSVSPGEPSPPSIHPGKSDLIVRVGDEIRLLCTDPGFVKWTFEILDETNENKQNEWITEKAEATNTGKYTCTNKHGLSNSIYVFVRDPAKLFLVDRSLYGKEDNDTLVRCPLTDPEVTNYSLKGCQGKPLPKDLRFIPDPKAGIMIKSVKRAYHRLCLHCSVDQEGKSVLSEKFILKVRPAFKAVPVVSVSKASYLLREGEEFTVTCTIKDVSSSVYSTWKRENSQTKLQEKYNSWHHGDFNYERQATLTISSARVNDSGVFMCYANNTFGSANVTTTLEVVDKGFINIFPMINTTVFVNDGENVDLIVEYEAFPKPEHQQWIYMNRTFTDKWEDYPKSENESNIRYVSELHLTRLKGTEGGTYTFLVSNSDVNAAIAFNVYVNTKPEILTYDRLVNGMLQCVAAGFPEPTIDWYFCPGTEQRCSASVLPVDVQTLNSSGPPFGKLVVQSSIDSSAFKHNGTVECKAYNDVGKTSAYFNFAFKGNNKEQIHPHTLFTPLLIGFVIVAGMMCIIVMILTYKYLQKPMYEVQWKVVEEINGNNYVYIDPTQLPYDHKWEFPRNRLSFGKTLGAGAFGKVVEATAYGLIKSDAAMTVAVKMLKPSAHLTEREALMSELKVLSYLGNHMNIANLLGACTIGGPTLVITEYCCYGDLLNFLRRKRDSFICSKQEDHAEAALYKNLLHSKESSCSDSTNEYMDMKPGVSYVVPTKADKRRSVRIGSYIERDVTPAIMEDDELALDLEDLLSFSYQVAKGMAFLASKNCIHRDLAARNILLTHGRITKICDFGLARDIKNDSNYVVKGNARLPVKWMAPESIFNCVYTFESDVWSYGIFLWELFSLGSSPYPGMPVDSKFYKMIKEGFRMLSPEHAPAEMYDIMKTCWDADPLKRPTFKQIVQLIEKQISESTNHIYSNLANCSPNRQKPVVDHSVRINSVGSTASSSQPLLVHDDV
T1 sequence (P10721 26-976): as the sequence (P10721 26-976 V654A) above, with A629V counted along it
Sequence of c-KIT (T670I) (P10721 26-976 T670I): as the sequence (P10721 26-976 V654A) above, with A629V, T645I counted along it
Sequence of PDGFR-α (P16234 24-1089): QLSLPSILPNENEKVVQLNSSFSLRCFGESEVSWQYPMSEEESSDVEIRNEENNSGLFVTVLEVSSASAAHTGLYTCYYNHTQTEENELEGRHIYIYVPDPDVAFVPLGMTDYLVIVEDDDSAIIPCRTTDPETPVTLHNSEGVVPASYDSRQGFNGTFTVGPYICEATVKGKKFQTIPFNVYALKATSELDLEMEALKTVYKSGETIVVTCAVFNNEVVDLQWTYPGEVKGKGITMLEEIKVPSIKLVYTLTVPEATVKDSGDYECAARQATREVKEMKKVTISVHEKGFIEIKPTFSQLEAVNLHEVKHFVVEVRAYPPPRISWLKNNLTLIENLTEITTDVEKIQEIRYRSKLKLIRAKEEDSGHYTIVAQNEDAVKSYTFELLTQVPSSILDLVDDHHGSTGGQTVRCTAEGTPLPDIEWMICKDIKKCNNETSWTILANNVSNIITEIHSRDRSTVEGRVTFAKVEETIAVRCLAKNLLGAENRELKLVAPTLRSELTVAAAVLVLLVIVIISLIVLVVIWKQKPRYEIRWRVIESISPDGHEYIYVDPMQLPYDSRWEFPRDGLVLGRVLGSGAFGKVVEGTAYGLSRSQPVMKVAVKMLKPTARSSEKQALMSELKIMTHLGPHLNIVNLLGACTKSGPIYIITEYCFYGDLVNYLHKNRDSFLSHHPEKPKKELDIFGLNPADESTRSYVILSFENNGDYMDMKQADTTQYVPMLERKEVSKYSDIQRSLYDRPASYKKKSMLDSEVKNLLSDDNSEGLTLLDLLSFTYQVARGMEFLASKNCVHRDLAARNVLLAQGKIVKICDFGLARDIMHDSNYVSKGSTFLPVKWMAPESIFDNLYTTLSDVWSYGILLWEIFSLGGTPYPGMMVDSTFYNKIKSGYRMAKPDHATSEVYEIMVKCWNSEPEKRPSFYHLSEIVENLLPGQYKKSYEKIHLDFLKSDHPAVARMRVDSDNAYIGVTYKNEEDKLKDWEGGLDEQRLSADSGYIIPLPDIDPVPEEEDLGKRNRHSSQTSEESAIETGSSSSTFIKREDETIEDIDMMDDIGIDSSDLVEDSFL

C/C=C/C(=O)Nc1ccc(C(=O)Nc2ccc(C)c(Nc3nccc(-c4cccnc4)n3)c2)cc1 [II-4]
inhibition at 1 µM (PDGFR-α): 28%

Cc1ccc(NC(=O)c2ccc(CN3C(=O)C=CC3=O)cc2)cc1Nc1nccc(-c2cccnc2)n1 [II-8, 4-(2,5-Dioxo-2,5-dihydropyrrol-1-ylmethyl)-N-[4-methyl-3-(4-pyridin-3-yl-pyrimidin-2-ylamino)-phenyl]benzamide]
inhibition at 1 µM (c-KIT kinase [1]; compound at 1 μM, 300 μM ATP): 78%

Cc1ccc(NC(=O)c2ccc(NS(=O)(=O)c3cnccc3Cl)cc2)cc1Nc1nccc(-c2cccnc2)n1 [II-40]
IC50 (c-KIT (V654A) [2]): 10 µM

Cc1ccc(NC(=O)c2ccc(NC(=O)CCl)cc2)cc1Nc1nccc(-c2cccnc2)n1 [II-53]
IC50 (c-KIT (V654A) [2]): 0.937 µM | IC50 (c-KIT (V654A) [3]): 0.26 µM

Cc1ccc(NC(=O)c2ccc(NC(=O)/C=C/CN(C)C)cc2)cc1Nc1nccc(-c2cccnc2)n1 [II-5]
inhibition at 1 µM (c-KIT kinase [1]; compound at 1 μM, 300 μM ATP): 66%

Cc1ccc(NC(=O)c2ccc(NC(=O)COC(=O)c3c(Cl)cccc3Cl)cc2)cc1Nc1nccc(-c2cccnc2)n1 [II-26]
inhibition at 1 µM (c-KIT kinase [1]; compound at 1 μM, 300 μM ATP): 94%

Cc1ccc(NC(=O)c2ccc(NC(=O)/C=C/CN(C)C)c(C(F)(F)F)c2)cc1Nc1nccc(-c2cccnc2)n1 [II-55]
IC50 (c-KIT (V654A) [2]): 9.15 µM

Cc1ccc(C(=O)Nc2ccc(NC(=O)CCl)c(C(F)(F)F)c2)cc1Nc1nccc(-c2cccnc2)n1 [III-14]
covalent modification of c-KIT (mass spectral analysis) (c-KIT kinase [4]): covalently bound to c-KIT protein at two target cystein residues: Cys808 (minor) and Cys788 (major)

Cc1ccc(C(=O)Nc2ccc(NC(=O)/C=C/CN(C)C)c(C(F)(F)F)c2)cc1Nc1nccc(-c2cccnc2)n1 [III-6]
IC50 (c-KIT (V654A) [2]): 3.99 µM | IC50 (c-KIT (V654A) [3]): 0.216 µM | IC50 (c-KIT (T670I)): 1.57 µM

C=CC(=O)Nc1ccc(C(=O)Nc2ccc(C)c(Nc3nccc(-c4cccnc4)n3)c2)cc1C(F)(F)F [II-2]
IC50 (c-KIT (V654A) [3]): 0.083 µM

Cc1ccc(NC(=O)c2ccc(NC(=O)C(C)Cl)cc2)cc1Nc1nccc(-c2cccnc2)n1 (centres unmarked) [II-54]
IC50 (c-KIT (V654A) [2]): 10 µM

Cc1ccc(NC(=O)c2ccc(NS(=O)(=O)c3ccc(Cl)nc3)cc2)cc1Nc1nccc(-c2cccnc2)n1 [II-41]
IC50 (c-KIT (V654A) [3]): 0.173 µM

C=CC(=O)Nc1ccc2cc(C(=O)Nc3ccc(C)c(Nc4nccc(-c5cccnc5)n4)c3)ccc2c1 [II-44, 6-Acryloylaminonaphthalene-2-carboxylic acid[4-methyl-3-(4-pyridin-3-ylpyrimidin-2-ylamino)phenyl]amide]
inhibition at 1 µM (c-KIT kinase [1]): 95%

C=CC(=O)NCc1ccc(C(=O)Nc2ccc(C)c(Nc3nccc(-c4cccnc4)n3)c2)cc1 [II-6, 4-(Acryloylaminomethyl)-N-[4-methyl-3-(4-pyridin-3-ylpyrimidin-2-ylamino)phenyl]benzamide]
inhibition at 1 µM (c-KIT kinase [1]; compound at 1 μM, 300 μM ATP): 91%
